Activity calls are given as the source filed them.
How the values were obtained:
[1] = target: Prothrombin (Bos taurus, UniProt P00735); assay: thrombin protease inhibitors – biochemical, fluorescence polarization, uHTS hits, dose response (AID 602369); format: functional
[2] = target: Cytochrome P450 2D6 (Homo sapiens, UniProt P10635);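 note: CYP2D6 member of a cytochrome P450 panel assay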
[3] = target: 72 kDa type IV collagenase (Homo sapiens, UniProt P08253); assay: Dose Response validation of uHTS RPN11 inhibitor hits using a MMP-2 Fluorescence assay.; format: functional
72 kDa type IV collagenase, sequence (P08253 whole entry): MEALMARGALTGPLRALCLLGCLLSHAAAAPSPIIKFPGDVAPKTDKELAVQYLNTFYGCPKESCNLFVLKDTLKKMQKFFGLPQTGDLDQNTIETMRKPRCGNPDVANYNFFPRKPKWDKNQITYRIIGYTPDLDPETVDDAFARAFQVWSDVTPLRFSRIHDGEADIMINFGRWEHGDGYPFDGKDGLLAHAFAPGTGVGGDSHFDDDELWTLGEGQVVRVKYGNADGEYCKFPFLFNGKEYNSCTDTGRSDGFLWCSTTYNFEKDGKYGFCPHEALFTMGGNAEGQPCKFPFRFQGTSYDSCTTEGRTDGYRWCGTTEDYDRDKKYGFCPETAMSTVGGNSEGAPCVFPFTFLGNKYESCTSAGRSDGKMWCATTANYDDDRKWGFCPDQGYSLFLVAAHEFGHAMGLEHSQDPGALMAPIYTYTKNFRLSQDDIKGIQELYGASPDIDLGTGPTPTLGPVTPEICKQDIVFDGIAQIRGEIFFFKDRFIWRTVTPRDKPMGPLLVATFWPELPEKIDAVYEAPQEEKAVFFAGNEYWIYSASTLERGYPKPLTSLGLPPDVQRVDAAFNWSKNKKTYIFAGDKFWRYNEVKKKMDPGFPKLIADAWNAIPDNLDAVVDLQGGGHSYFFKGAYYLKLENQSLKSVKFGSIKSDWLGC

[4] = target: 26S proteasome non-ATPase regulatory subunit 14 (Homo sapiens, UniProt O00487); assay: inhibition of proteasome subunit RPN11 – biochemical, fluorescence polarization, uHTS hits, confirmation (AID 602368); format: functional
26S proteasome non-ATPase regulatory subunit 14, sequence (O00487 whole entry): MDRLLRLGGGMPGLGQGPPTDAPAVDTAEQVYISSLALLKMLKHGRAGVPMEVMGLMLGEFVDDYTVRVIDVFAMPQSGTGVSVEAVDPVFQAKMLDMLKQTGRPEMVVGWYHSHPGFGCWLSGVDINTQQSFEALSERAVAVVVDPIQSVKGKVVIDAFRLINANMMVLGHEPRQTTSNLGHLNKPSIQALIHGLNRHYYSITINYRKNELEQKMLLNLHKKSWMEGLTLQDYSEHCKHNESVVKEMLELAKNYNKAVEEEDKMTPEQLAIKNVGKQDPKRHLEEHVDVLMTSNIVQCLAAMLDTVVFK

[5] = target: Large T antigen (Simian virus 40, UniProt P03070); format: functional, Betapolyomavirus macacae;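 note: Confirmatory-stage PubChem screen for compounds that inhibit SV40 T antigen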
[6] = reduction of Shn3 3'UTR-driven luciferase in osteoblasts – cell-based, Clone20 osteoblasts, firefly luciferase, cherry-picked, dose response (AID 624132); format: functional;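 note: firefly luciferase luminescence from reporter carrying the Shn3 3'UTR in osteoblasts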
[7] = loss of viability in HepG2 cells – cell-based, CellTiter-Glo, cherry-picked, cytotoxicity control for Shn3 inhibitor project, dose response (AID 624134); format: functional
[8] = tested on: INS1; assay: INS-1E survival protection against cytokine death – cell-based, luminescence, retest, dose response (AID 449756); format: functional; conditions: Rattus norvegicus;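 note: cell death triggered by IL-1 beta plus TNF-alpha plus IFN-gamma mixture; protective hits raise ATP signal compared with cytokine alone wells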
[9] = non-specific 3'UTR reporter inhibition in Clone20-Shn3RL – cell-based, Renilla luciferase, cherry-picked, counter-screen for Shn3 inhibitor project, dose response (AID 624133); format: functional
[10] = target: T1, Endoribonuclease toxin MazF (Escherichia coli K-12, UniProt P0AE70); assay: activation of MazEF endoribonuclease cleavage – biochemical, fluorescence, single-stranded RNA substrate, uHTS hits, dose response (AID 588481); format: functional
T1 sequence (P0AE70 whole entry): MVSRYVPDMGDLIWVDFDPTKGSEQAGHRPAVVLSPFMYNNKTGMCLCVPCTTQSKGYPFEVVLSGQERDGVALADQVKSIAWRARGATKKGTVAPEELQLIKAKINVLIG

[11] = target: T1, Endoribonuclease toxin MazF; assay: substrate-only fluorescence increase artefacts – biochemical, single-stranded RNase substrate, counter-screen for MazEF activator project, dose response (AID 588502); format: functional
[12] = HEK-293T cell viability reduction – luminescence, B-cell screen hits, cytotoxicity control for BCR NF-kB inhibitor project, dose response (AID 489021); format: functional, cell-based;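 note: HEK-293T cells carrying an NF-kB luciferase reporter; cells exposed to compound for about 14 hours before viability readout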
[13] = target: T2, Cytochrome P450 1A2 (Homo sapiens, UniProt P05177);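 note: PubChem cytochrome P450 panel assay, CYP1A2 panel member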
T2 sequence (P05177 whole entry): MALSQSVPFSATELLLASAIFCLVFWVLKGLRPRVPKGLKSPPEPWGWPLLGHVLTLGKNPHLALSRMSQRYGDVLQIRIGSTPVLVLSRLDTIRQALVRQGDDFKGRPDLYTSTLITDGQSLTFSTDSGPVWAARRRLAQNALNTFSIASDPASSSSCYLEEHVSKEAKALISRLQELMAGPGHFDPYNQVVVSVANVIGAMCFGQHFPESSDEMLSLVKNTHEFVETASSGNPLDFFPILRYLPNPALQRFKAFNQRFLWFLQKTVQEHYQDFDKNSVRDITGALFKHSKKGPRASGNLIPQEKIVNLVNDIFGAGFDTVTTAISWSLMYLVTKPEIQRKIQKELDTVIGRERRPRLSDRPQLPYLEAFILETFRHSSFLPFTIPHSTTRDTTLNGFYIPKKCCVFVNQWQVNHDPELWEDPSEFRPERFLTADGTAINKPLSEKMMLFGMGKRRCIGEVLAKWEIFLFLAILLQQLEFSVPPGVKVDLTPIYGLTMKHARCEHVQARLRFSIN

[14] = target: Cytochrome P450 2C9 (Homo sapiens, UniProt P11712)
Cytochrome P450 2C9, sequence (P11712 whole entry): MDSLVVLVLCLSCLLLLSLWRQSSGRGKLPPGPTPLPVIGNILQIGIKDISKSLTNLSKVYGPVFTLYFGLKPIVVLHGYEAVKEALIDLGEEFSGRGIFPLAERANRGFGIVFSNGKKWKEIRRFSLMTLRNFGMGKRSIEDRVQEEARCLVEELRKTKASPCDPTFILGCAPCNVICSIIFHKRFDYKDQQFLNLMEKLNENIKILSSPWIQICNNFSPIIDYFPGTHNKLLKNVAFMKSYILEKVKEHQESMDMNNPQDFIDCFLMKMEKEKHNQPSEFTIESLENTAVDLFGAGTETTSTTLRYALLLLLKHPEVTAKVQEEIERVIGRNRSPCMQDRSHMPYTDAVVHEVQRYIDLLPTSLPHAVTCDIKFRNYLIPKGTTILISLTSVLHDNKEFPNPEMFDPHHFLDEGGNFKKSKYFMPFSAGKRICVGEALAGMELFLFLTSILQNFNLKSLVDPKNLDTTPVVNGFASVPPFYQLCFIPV

[15] = target: Cytochrome P450 2C19 (Homo sapiens, UniProt P33261); assay: Cytochrome panel assay with activity outcomes. Panel member name: p450-cyp2c19 Compounds with AC50 equal or less than 10 uM are considered active; format: functional; conditions: read-out: AC50
Cytochrome P450 2C19, sequence (P33261 whole entry): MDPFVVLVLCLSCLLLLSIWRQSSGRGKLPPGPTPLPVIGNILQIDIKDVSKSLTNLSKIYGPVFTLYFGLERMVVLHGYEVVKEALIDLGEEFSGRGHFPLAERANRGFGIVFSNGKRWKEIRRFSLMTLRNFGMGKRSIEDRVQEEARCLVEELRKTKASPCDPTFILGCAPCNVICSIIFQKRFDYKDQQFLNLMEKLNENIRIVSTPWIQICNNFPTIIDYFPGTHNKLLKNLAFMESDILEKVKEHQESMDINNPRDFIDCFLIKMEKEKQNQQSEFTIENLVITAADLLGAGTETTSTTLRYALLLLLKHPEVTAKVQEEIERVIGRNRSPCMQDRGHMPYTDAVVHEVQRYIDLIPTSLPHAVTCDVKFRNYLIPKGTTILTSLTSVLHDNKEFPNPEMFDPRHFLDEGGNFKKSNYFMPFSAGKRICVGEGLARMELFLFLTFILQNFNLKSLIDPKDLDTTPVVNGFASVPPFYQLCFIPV

[16] = THP-1 cell cytotoxicity, dose response, cytotoxicity control for non-replicating M. tuberculosis project (AID 489025); format: functional
[17] = target: T3, Ubiquitin-conjugating enzyme E2 N (Homo sapiens, UniProt P61088); format: functional;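 note: Dose-response confirmation in a TR-FRET assay detecting UBC13-driven polyubiquitin chain formation, inhibition measured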
T3 sequence (P61088 whole entry): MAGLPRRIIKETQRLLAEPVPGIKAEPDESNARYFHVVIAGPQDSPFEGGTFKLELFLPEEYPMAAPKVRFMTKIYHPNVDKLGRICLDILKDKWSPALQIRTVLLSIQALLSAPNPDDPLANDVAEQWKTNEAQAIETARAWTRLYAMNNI

[18] = target: Voltage-dependent T-type calcium channel subunit alpha-1H (Homo sapiens, UniProt O95180); format: functional;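 note: channel activity triggered by adding a high calcium stimulation buffer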
Voltage-dependent T-type calcium channel subunit alpha-1H, sequence (O95180 whole entry): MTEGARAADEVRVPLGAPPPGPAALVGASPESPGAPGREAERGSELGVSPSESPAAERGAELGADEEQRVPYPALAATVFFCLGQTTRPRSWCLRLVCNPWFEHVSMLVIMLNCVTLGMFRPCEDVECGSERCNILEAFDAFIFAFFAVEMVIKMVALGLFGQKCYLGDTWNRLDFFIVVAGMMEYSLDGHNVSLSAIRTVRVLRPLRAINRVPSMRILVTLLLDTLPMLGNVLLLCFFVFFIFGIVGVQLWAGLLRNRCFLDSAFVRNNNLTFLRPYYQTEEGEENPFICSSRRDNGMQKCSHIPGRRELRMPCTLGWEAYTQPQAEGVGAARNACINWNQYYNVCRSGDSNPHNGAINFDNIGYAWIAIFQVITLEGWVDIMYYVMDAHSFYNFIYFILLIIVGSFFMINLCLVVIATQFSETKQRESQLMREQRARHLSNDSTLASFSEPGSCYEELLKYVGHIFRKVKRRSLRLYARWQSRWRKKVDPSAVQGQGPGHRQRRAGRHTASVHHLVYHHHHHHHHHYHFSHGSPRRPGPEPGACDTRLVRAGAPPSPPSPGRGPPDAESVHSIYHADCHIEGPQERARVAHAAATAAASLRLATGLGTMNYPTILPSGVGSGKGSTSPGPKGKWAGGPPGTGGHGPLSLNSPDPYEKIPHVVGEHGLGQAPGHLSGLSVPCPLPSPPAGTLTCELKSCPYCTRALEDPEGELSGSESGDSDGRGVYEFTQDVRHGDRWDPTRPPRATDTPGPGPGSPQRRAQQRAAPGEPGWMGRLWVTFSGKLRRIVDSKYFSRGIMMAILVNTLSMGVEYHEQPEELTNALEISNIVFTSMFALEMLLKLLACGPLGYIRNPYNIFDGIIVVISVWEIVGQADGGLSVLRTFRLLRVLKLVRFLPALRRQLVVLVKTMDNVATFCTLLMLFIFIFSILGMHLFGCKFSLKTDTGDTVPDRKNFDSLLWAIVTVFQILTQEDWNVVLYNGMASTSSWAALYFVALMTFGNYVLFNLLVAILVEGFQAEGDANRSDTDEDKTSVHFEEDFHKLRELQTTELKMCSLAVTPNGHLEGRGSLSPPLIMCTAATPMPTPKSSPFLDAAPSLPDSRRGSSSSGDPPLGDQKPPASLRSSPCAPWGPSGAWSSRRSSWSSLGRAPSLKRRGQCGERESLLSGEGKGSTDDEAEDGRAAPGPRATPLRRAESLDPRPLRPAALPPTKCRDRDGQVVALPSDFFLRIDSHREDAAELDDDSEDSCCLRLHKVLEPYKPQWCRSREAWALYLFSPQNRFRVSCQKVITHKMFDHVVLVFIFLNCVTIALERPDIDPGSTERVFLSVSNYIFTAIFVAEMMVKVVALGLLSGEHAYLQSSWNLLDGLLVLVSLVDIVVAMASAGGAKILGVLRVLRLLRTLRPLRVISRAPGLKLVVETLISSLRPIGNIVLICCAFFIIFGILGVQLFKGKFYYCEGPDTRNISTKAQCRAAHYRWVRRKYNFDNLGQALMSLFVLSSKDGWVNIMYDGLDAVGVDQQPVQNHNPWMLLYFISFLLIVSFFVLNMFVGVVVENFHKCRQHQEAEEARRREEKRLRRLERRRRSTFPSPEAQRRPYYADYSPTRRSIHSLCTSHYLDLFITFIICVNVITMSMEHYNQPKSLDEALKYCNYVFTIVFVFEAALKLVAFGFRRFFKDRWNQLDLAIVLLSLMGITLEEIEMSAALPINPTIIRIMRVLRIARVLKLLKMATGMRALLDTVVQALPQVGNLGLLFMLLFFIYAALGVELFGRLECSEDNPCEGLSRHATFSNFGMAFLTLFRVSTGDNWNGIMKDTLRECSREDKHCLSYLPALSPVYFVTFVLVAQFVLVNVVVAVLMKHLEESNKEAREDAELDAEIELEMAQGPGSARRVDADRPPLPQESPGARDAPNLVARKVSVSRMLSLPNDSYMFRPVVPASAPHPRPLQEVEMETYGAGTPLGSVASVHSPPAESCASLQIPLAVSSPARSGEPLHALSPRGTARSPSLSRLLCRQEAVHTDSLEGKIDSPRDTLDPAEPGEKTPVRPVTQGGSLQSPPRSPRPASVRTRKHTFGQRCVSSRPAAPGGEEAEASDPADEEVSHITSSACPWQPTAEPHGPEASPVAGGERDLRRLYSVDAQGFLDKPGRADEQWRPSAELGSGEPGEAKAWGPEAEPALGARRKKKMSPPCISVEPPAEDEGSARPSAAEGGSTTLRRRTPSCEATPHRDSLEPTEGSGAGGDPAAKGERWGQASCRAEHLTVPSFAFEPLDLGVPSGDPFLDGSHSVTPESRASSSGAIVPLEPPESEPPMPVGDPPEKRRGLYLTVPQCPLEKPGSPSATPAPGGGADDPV

[19] = target: T4, Estrogen receptor (Homo sapiens, UniProt P03372);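 note: potency for inhibiting coactivator peptide recruitment to the receptor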
T4 sequence (P03372 whole entry): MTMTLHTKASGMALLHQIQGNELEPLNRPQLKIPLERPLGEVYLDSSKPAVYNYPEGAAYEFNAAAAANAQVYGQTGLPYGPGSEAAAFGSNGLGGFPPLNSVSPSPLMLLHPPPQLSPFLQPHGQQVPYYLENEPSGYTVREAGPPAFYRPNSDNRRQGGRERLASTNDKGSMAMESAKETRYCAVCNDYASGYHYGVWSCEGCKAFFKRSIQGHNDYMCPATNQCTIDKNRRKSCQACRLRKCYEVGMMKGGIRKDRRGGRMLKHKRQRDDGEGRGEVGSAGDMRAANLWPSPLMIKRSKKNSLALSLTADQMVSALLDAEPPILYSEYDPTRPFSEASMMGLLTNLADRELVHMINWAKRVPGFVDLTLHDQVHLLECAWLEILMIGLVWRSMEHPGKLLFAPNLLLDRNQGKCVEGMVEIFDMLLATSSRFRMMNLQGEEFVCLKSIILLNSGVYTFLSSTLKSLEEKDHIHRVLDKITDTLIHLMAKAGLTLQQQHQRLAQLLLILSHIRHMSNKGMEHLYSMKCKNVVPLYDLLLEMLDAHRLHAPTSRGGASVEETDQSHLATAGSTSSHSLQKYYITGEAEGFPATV

[20] = target: Trypsin (Sus scrofa, UniProt P00761); assay: trypsin protease activity blockade – biochemical, quenched peptide fluorescence, cherry-pick, selectivity assay for Rce1 protease inhibitor project, dose response (AID 488789)
Trypsin, sequence (P00761 whole entry): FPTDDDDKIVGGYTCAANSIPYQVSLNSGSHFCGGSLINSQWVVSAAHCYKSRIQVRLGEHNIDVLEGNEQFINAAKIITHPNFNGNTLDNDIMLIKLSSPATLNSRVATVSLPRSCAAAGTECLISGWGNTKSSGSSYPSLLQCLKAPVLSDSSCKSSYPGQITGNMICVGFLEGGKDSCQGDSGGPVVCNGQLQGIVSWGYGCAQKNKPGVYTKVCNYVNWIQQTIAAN

[21] = target: T5, CAAX prenyl protease 2 (Saccharomyces cerevisiae S288c, UniProt Q03530); format: biochemical
T5 sequence (Q03530 whole entry): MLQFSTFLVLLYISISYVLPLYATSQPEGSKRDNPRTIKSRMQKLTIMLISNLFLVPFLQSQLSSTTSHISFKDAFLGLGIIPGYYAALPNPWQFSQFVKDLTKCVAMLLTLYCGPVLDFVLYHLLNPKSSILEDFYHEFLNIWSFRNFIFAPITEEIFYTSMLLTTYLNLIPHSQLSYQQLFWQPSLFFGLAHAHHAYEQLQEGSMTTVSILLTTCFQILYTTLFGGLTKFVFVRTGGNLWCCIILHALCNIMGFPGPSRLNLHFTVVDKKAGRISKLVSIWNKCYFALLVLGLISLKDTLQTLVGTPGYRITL

Cytochrome P450 2D6, sequence (P10635 whole entry): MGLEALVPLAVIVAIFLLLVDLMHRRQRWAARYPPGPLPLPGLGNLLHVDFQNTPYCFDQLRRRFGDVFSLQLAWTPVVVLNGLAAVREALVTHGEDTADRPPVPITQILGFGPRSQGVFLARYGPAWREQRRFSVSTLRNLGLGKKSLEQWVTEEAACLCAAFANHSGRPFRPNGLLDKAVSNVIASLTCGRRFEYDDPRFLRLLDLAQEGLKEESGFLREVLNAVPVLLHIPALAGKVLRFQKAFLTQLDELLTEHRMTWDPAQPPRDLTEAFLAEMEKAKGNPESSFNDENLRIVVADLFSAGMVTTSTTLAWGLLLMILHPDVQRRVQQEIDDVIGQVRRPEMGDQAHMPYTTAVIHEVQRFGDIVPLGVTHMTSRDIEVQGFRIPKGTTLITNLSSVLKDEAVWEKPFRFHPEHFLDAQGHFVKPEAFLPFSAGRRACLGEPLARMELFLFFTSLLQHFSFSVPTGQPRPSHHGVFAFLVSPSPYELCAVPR

N#C/C(=C\c1ccc(O)c(O)c1)C(=O)Nc1ccccc1
IC50 [1]: 67.9 µM (active)
AC50 [2]: 39.8 µM (inconclusive)
IC50 [3]: > 100 µM (inactive)
IC50 [4]: 1.3 µM (active)
IC50 [5]: 13.1 µM (active)

O=[N+]([O-])c1ccc(Sc2cccc3cccnc23)c([N+](=O)[O-])c1
IC50 [1]: > 100 µM (inactive)
IC50 [3]: > 100 µM (inactive)
AC50 [6]: 1.71 µM (active)
AC50 [7]: > 70 µM (inactive)
AC50 [8]: 1.18 µM (active)
AC50 [9]: 15.2 µM (active)
IC50 [4]: 27.6 µM (active)

CCOC(=O)c1c(NC(=O)Nc2ccc(C)cc2)sc2c1CCN(C)C2
EC50 [10]: > 99 µM (inactive)
EC50 [11]: > 99 µM (inactive)

Cn1c(=O)cc(OCC(=O)N2CCC3(CC2)OCCO3)c2ccccc21
IC50 [12]: > 80 µM (inactive)

CC1(C)CC2(CC(C)(C(=O)CSc3nc4ccccc4s3)OC2=O)C(=O)O1 (configuration not stated)
AC50 [13]: 28.2 µM (inconclusive)
AC50 [14]: inconclusive
AC50 [15]: 8.91 µM (inconclusive)

O=C1NC(=O)N(C2CCCCC2)C(=O)/C1=C\C=C\Nc1ccccc1
EC50 [10]: > 99 µM (inactive)
EC50 [11]: 9.49 µM (active)

Cn1cccc1/C=N\NC(=O)C1COc2ccccc2O1 (configuration not stated)
CC50 [16]: > 40 µM (active)

CC(C)n1ncc2c(C(=O)Nc3ccc(S(N)(=O)=O)cc3)cc(C3CC3)nc21
IC50 [17]: > 20 µM (inactive)
IC50 [1]: 73.6 µM (active)
IC50 [3]: > 100 µM (inactive)
IC50 [4]: 6.85 µM (active)

CC/C(=N/Nc1cccc(C)c1)c1cnnc(SC)n1
EC50 [10]: > 99 µM (inactive)
EC50 [11]: > 99 µM (inactive)

CC(NC(=O)CCSc1nc(-c2ccc3c(c2)OCO3)cc(C(F)(F)F)n1)c1ccccc1 (configuration not stated)
AC50 [15]: 0.398 µM (inconclusive)
EC50 [18]: 7.03 µM (active)
IC50 [19]: > 50 µM (not active)

COC(=O)c1ccc2c(=O)n(CCCCCC(=O)NCc3ccc4c(c3)OCO4)c(=O)[nH]c2c1
IC50 [19]: 14.8 µM (active)

Cc1cc(OCC(=O)N2CCC(C(=O)O)CC2)c2c(C)cc(=O)oc2c1
AC50 [20]: 21.7 µM (active)
AC50 [21]: 15.6 µM (active)

C=CCNc1nc(-c2cccc(OC)c2O)nc2ccccc12
IC50 [19]: > 50 µM (not active)

Cc1ccc(CO/N=C\Cc2snc(Sc3ncc(C(F)(F)F)cc3Cl)c2C#N)cc1
IC50 [1]: 54.2 µM (active)
IC50 [3]: > 100 µM (inactive)
IC50 [4]: 14.6 µM (active)
